Reference: ChEMBL document CHEMBL1135443, “Acyclic nucleoside analogues as novel inhibitors of human mitochondrial thymidine kinase” (J Med Chem, 2002)

Columns and labels:
[1] = system: Thymidine kinase (Herpes simplex virus type 1); conditions: Human alphaherpesvirus 1
[2] = molecular target: Thymidine kinase 2, mitochondrial (Homo sapiens) (UniProt O00142)
Thymidine kinase 2, mitochondrial (Homo sapiens), sequence (O00142 whole entry, looked up): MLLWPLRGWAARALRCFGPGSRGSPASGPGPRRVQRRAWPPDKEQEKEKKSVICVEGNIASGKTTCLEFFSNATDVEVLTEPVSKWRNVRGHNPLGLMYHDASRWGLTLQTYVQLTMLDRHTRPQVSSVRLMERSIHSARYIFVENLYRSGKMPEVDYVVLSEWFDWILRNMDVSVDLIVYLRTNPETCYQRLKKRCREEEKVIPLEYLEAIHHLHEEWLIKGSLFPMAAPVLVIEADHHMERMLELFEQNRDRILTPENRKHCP

| NEA [1] | NEA [2] | Compound |
| --- | --- | --- |
| Not estimated accurately | Not estimated accurately | Cc1cn(C/C=C\COC(c2ccccc2)(c2ccccc2)c2ccccc2)c(=O)n(C)c1=O |
| Not estimated accurately | Not estimated accurately | Cc1cn(Cc2ccccc2COC(c2ccccc2)(c2ccccc2)c2ccccc2)c(=O)[nH]c1=O |
| Not estimated accurately | Not estimated accurately | Cc1cn(C/C=C\CO)c(=O)[nH]c1=O |
| Not estimated accurately | Not estimated accurately | Cc1cn(C/C=C\COC(c2ccccc2)(c2ccccc2)c2ccccc2)c(=O)nc1N |
|  | Not estimated accurately | Cc1cn(CC#CCOC(c2ccccc2)(c2ccccc2)c2ccccc2)c(=O)[nH]c1=O |
|  | Not estimated accurately | COc1ccc(C(OC[C@H]2O[C@@H](n3cc(C)c(=O)[nH]c3=O)C[C@@H]2O)(c2ccccc2)c2ccc(OC)cc2)cc1 |
| Not estimated accurately | Not estimated accurately | Nc1nc(O)c2ncn(C/C=C\COC(c3ccccc3)(c3ccccc3)c3ccccc3)c2n1 |
